Experimental data from patent publication US9453062B2, “Glucose dependent insulinotropic polypeptide analogs, pharmaceutical compositions and use thereof” (Beijing Hanmi Pharmaceutical Co., Ltd., priority 2011, dated 2016).
Where two headings read alike, the source gives them in different places. *1 amine or outer side, *2 acyl side, *3 side chain or, on linkers, in order; H or OH if unused. Where a SMILES comes first, the peptide text is derived from it. Bridges are numbered along the chain shown (N, C = ends). Side-chain parts run from the residue outwards. [ ]: non-standard residue; d: D form. The star is where a group is joined. γGlu = O=C(O)[C@H](CCC(=O)[*:2])N[*:1]; Palmitoyl = CCCCCCCCCCCCCCCC(=O)*; Aib = CC(C)(N)C(=O)O

What was measured:
hGIPR = target: T1, hGIPR (Homo sapiens, UniProt P48546); assay: hGIPR-mediated cAMP induction assay in CHO cell line; assay type: cell-based; settings: for GIPR Relative Potency / GIP Receptor Relative Potency: against native GIP
T1 construct: expressed in transfected cells; host or cells: CHO
T1 sequence (P48546 22-466): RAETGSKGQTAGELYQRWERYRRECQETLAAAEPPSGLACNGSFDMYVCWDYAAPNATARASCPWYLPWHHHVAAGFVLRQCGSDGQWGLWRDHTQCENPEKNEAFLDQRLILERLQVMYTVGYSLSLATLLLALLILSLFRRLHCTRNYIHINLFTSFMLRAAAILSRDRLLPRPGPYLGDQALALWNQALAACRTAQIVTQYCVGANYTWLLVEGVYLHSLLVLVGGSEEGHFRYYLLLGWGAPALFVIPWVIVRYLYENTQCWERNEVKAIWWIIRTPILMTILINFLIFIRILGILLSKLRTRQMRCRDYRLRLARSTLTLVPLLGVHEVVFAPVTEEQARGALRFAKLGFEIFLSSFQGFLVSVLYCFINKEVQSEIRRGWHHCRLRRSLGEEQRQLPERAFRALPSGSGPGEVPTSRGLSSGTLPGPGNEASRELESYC

hGLP-1R = target: T2, hGLP-1R (Homo sapiens, UniProt P43220); assay: hGLP-1R-mediated cAMP induction assay in CHO cell line; assay type: cell-based; settings: for GLP-1R Relative Potency / GLP-1 Receptor Relative Potency: against native GLP-1;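 for all read-outs here: CHO cells expressing human GLP-1R, treated 30 min at 37 °C, intracellular cAMP measured by competitive fluorescent immunoassay and converted via a cAMP standard curve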
T2 construct: expressed in transfected cells; host or cells: CHO
T2 sequence (P43220 24-463): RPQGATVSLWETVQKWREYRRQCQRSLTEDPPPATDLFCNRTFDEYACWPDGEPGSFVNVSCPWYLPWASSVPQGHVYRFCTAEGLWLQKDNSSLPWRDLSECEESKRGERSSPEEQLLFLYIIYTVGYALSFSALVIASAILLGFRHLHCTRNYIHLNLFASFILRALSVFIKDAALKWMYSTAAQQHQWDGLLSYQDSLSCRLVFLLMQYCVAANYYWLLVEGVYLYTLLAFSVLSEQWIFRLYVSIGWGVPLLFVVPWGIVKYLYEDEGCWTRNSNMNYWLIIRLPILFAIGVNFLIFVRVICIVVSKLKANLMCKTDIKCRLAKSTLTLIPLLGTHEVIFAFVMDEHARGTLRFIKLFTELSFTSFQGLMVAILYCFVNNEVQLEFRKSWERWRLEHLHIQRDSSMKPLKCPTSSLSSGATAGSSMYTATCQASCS

[1] = Table 1, CHO/hGIPR cells, read-out: GIPR EC50
[2] = Table 1, CHO/hGLP-1R cells, read-out: GLP-1R EC50

EC50 (hGIPR; [1]) [nM] | GIPR Relative Potency (hGIPR; Table 1) [%] | EC50 (hGLP-1R; [2]) [nM] | GLP-1R Relative Potency (hGLP-1R; Table 1) [%] | Compound | GIP Receptor Relative Potency (hGIPR; Table 3) | GLP-1 Receptor Relative Potency (hGLP-1R; Table 3) | EC50 (hGIPR; Table 3, CHO hGIPR cells) [nM] | EC50 (hGLP-1R; Table 3, CHO hGLP1R cells) [nM]
0.1 | 500 | 0.309 | 354 | CC[C@H](C)[C@H](NC(=O)[C@H](CO)NC(=O)[C@H](Cc1ccc(O)cc1)NC(=O)[C@H](CC(=O)O)NC(=O)[C@H](CO)NC(=O)[C@@H](NC(=O)[C@H](Cc1ccccc1)NC(=O)[C@@H](NC(=O)CNC(=O)[C@H](CCC(=O)O)NC(=O)C(C)(C)NC(=O)[C@@H](N)Cc1ccc(O)cc1)[C@@H](C)O)[C@@H](C)O)C(=O)N[C@@H](Cc1ccc(O)cc1)C(=O)N[C@@H](CCSC)C(=O)N[C@@H](CCC(=O)O)C(=O)N[C@@H](CCCCN)C(=O)N[C@@H](CCC(=O)O)C(=O)N[C@@H](C)C(=O)N[C@H](C(=O)N[C@@H](CCCNC(=N)N)C(=O)N[C@@H](CC(C)C)C(=O)N[C@@H](Cc1ccccc1)C(=O)N[C@H](C(=O)N[C@@H](CCC(=O)O)C(=O)N[C@@H](Cc1c[nH]c2ccccc12)C(=O)N[C@@H](CC(C)C)C(=O)N[C@@H](CCCCN)C(=O)N[C@@H](CC(N)=O)C(=O)NCC(N)=O)[C@@H](C)CC)C(C)C [Compounds 024] (H-Y[Aib]EGTFTSDYSIYMEKEAVRLFIEWLKNG-NH2; N-terminus assumed) | 500 | 354 | – | –
– | – | – | – | CCCCCCCCCCCCCCCC(=O)N[C@@H](CCC(=O)NCCCC[C@H](NC(=O)[C@@H](NC(=O)[C@H](CC(C)C)NC(=O)[C@H](Cc1c[nH]c2ccccc12)NC(=O)[C@H](C)NC(=O)[C@@H](NC(=O)[C@H](Cc1ccccc1)NC(=O)[C@H](CCC(=O)O)NC(=O)[C@H](CCCNC(=N)N)NC(=O)[C@@H](NC(=O)[C@H](C)NC(=O)[C@H](CCC(=O)O)NC(=O)[C@H](CCCCN)NC(=O)[C@H](CCC(=O)O)NC(=O)[C@H](CCSC)NC(=O)[C@H](Cc1ccc(O)cc1)NC(=O)[C@@H](NC(=O)[C@H](CO)NC(=O)[C@H](Cc1ccc(O)cc1)NC(=O)[C@H](CC(=O)O)NC(=O)[C@H](CO)NC(=O)[C@@H](NC(=O)[C@H](Cc1ccccc1)NC(=O)[C@@H](NC(=O)CNC(=O)[C@H](CCC(=O)O)NC(=O)C(C)(C)NC(=O)[C@@H](N)Cc1ccc(O)cc1)[C@@H](C)O)[C@@H](C)O)[C@@H](C)CC)C(C)C)[C@@H](C)CC)C(C)C)C(=O)NCC(=O)NCC(=O)N1CCC[C@H]1C(=O)N[C@@H](CO)C(=O)N[C@@H](CO)C(=O)NCC(=O)N[C@@H](C)C(=O)N1CCC[C@H]1C(=O)N1CCC[C@H]1C(=O)N1CCC[C@H]1C(=O)N[C@@H](CO)C(N)=O)C(=O)O [Compound 094] | 4.7 | 149.2 | 0.85 | 0.67
– | – | – | – | CC[C@H](C)[C@H](NC(=O)[C@H](Cc1ccccc1)NC(=O)[C@H](CCC(=O)O)NC(=O)[C@H](CCCNC(=N)N)NC(=O)[C@@H](NC(=O)[C@H](C)NC(=O)[C@H](CCC(=O)O)NC(=O)[C@@H]1CCCCNC(=O)CC[C@H](NC(=O)[C@H](CO)NC(=O)[C@H](Cc2ccc(O)cc2)NC(=O)[C@H](CC(=O)O)NC(=O)[C@H](CO)NC(=O)[C@@H](NC(=O)[C@H](Cc2ccccc2)NC(=O)[C@@H](NC(=O)CNC(=O)[C@H](CCC(=O)O)NC(=O)C(C)(C)NC(=O)[C@@H](N)Cc2ccc(O)cc2)[C@@H](C)O)[C@@H](C)O)C(=O)N[C@@H](Cc2ccc(O)cc2)C(=O)N[C@@H](CCSC)C(=O)N[C@@H](CCC(=O)O)C(=O)N1)C(C)C)C(=O)N[C@@H](C)C(=O)N[C@@H](Cc1c[nH]c2ccccc12)C(=O)N[C@@H](CC(C)C)C(=O)N[C@H](C(=O)N[C@@H](CCCCN)C(=O)NCC(N)=O)C(C)C [Compound 052-2] (H-Y[Aib]EGTFTSDYSEYMEKEAVREFIAWLVKG-NH2; lactam 12-16) | 146.8 | 132.8 | – | –
– | – | – | – | CC[C@H](C)[C@H](NC(=O)[C@H](Cc1ccccc1)NC(=O)[C@H](CCC(=O)O)NC(=O)[C@H](CCCNC(=N)N)NC(=O)[C@@H](NC(=O)[C@H](C)NC(=O)[C@H](CCC(=O)O)NC(=O)[C@H](CCCCN)NC(=O)[C@H](CCC(=O)O)NC(=O)[C@H](CCSC)NC(=O)[C@H](Cc1ccc(O)cc1)NC(=O)[C@@H](NC(=O)[C@H](CO)NC(=O)[C@H](Cc1ccc(O)cc1)NC(=O)[C@H](CC(=O)O)NC(=O)[C@H](CO)NC(=O)[C@@H](NC(=O)[C@H](Cc1ccccc1)NC(=O)[C@@H](NC(=O)CNC(=O)[C@H](CCC(=O)O)NC(=O)C(C)(C)NC(=O)[C@@H](N)Cc1ccc(O)cc1)[C@@H](C)O)[C@@H](C)O)[C@@H](C)CC)C(C)C)C(=O)N[C@@H](C)C(=O)N[C@@H](Cc1c[nH]c2ccccc12)C(=O)N[C@@H](CC(C)C)C(=O)N[C@H](C(=O)N[C@@H](CCCCN)C(=O)NCC(=O)NCC(=O)N1CCC[C@H]1C(=O)N[C@@H](CO)C(=O)N[C@@H](CO)C(=O)NCC(=O)N[C@@H](C)C(=O)N1CCC[C@H]1C(=O)N1CCC[C@H]1C(=O)N1CCC[C@H]1C(=O)N[C@@H](CO)C(N)=O)C(C)C [Compound 051] (H-Y[Aib]EGTFTSDYSIYMEKEAVREFIAWLVKGGPSSGAPPPS-NH2; N-terminus assumed) | 89.5 | 159.8 | 0.19 | 0.599
– | – | – | – | CCCCCCCCCCCCCCCC(=O)N[C@@H](CCC(=O)N[C@@H](CCC(=O)NCCCC[C@H](NC(=O)[C@@H](NC(=O)[C@H](C)NC(=O)[C@H](CCC(=O)O)NC(=O)[C@H](CCCCN)NC(=O)[C@H](CCC(=O)O)NC(=O)[C@H](CCSC)NC(=O)[C@H](Cc1ccc(O)cc1)NC(=O)[C@@H](NC(=O)[C@H](CO)NC(=O)[C@H](Cc1ccc(O)cc1)NC(=O)[C@H](CC(=O)O)NC(=O)[C@H](CO)NC(=O)[C@@H](NC(=O)[C@H](Cc1ccccc1)NC(=O)[C@@H](NC(=O)CNC(=O)[C@H](CCC(=O)O)NC(=O)C(C)(C)NC(=O)[C@@H](N)Cc1ccc(O)cc1)[C@@H](C)O)[C@@H](C)O)[C@@H](C)CC)C(C)C)C(=O)N[C@@H](CCC(=O)O)C(=O)N[C@@H](Cc1ccccc1)C(=O)N[C@H](C(=O)N[C@@H](C)C(=O)N[C@@H](Cc1c[nH]c2ccccc12)C(=O)N[C@@H](CC(C)C)C(=O)N[C@H](C(=O)N[C@@H](CCCCN)C(=O)NCC(=O)NCC(=O)N1CCC[C@H]1C(=O)N[C@@H](CO)C(=O)N[C@@H](CO)C(=O)NCC(=O)N[C@@H](C)C(=O)N1CCC[C@H]1C(=O)N1CCC[C@H]1C(=O)N1CCC[C@H]1C(=O)N[C@@H](CO)C(N)=O)C(C)C)[C@@H](C)CC)C(=O)O)C(=O)O [Compound 093] (H-Y[Aib]EGTFTSDYSIYMEKEAVK([γGlu-γGlu-Palmitoyl])EFIAWLVKGGPSSGAPPPS-NH2) | 133.3 | 232.5 | 0.03 | 0.43
4.2 | 11.9 | 0.38 | 288 | CC[C@H](C)[C@H](NC(=O)[C@H](Cc1ccccc1)NC(=O)[C@H](CC(C)C)NC(=O)[C@H](CCCCN)NC(=O)[C@H](C)NC(=O)[C@H](C)NC(=O)[C@H](CCC(N)=O)NC(=O)[C@H](CCCCN)NC(=O)[C@H](CCC(=O)O)NC(=O)[C@H](CCSC)NC(=O)[C@H](Cc1ccc(O)cc1)NC(=O)[C@@H](NC(=O)[C@H](CO)NC(=O)[C@H](Cc1ccc(O)cc1)NC(=O)[C@H](CC(=O)O)NC(=O)[C@H](CO)NC(=O)[C@@H](NC(=O)[C@H](Cc1ccccc1)NC(=O)[C@@H](NC(=O)CNC(=O)[C@H](CCC(=O)O)NC(=O)C(C)(C)NC(=O)[C@@H](N)Cc1ccc(O)cc1)[C@@H](C)O)[C@@H](C)O)[C@@H](C)CC)C(=O)N[C@@H](CCC(=O)O)C(=O)N[C@@H](Cc1c[nH]c2ccccc12)C(=O)N[C@@H](CC(C)C)C(=O)N[C@@H](CCCCN)C(=O)N[C@@H](CC(N)=O)C(=O)NCC(N)=O [Compounds 026] (H-Y[Aib]EGTFTSDYSIYMEKQAAKLFIEWLKNG-NH2) | 11.9 | 288 | – | –
– | – | – | – | CCCCCCCCCCCCCCCC(=O)N[C@@H](CCC(=O)NCCCC[C@H](NC(=O)[C@H](CO)NC(=O)[C@@H]1CCCN1C(=O)[C@@H]1CCCN1C(=O)[C@@H]1CCCN1C(=O)[C@H](C)NC(=O)CNC(=O)[C@H](CO)NC(=O)[C@H](CO)NC(=O)[C@@H]1CCCN1C(=O)CNC(=O)CNC(=O)[C@H](CCCCN)NC(=O)[C@@H](NC(=O)[C@H](CC(C)C)NC(=O)[C@H](Cc1c[nH]c2ccccc12)NC(=O)[C@H](C)NC(=O)[C@@H](NC(=O)[C@H](Cc1ccccc1)NC(=O)[C@H](CCC(=O)O)NC(=O)[C@H](CCCNC(=N)N)NC(=O)[C@@H](NC(=O)[C@H](C)NC(=O)[C@H](CCC(=O)O)NC(=O)[C@H](CCCCN)NC(=O)[C@H](CCC(=O)O)NC(=O)[C@H](CCSC)NC(=O)[C@H](Cc1ccc(O)cc1)NC(=O)[C@@H](NC(=O)[C@H](CO)NC(=O)[C@H](Cc1ccc(O)cc1)NC(=O)[C@H](CC(=O)O)NC(=O)[C@H](CO)NC(=O)[C@@H](NC(=O)[C@H](Cc1ccccc1)NC(=O)[C@@H](NC(=O)CNC(=O)[C@H](CCC(=O)O)NC(=O)C(C)(C)NC(=O)[C@@H](N)Cc1ccc(O)cc1)[C@@H](C)O)[C@@H](C)O)[C@@H](C)CC)C(C)C)[C@@H](C)CC)C(C)C)C(N)=O)C(=O)O [Compound 090] | 1311 | 568.6 | 0.009 | 0.188
